Measurements from US10994015B2, “EGFR proteolysis targeting chimeric molecules and associated methods of use” (Arvinas Operations, Inc., priority 2016, dated 2021).

Tests used:
[1] = molecular target: EGFR-wt (MDA-MB-231 or MCF7 or A549 or OVCAR8) (Homo sapiens (Human), UniProt P00533); experiment: EGFR protein degradation assay (Western blot); assay type: cell-based; settings: 72 hours, 300 nM to 10 nM
In short: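 EGFR degradation was assessed by Western blot. Cells expressing the appropriate EGFR were seeded in 6-well plates (300,000 cells per well) and adhered overnight. Media was removed, cells were washed with cold phosphate-buffered saline, scraped into 400 μl Cell Signaling lysis buffer plus protease inhibitor cocktail, and spun once at 10 000 rpm for 10 minutes. After BCA quantification, loading buffer and reducing agent were added. Gels loaded with 10 μg protein ran at 165V for 2 hours, and bands were visualized by chemiluminescence.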

[2] = molecular target: EGFR L858R/T790M double mutant (H1975) (Homo sapiens (Human), UniProt P00533, L858R/T790M); experiment: EGFR protein degradation assay (Western blot); assay type: cell-based; settings: 72 hours, 300 nM to 10 nM
In short: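 EGFR protein levels were measured by immunoblotting. Lysate protein was quantified by BCA, and 10 μg per sample was separated by SDS/PAGE at 165V for 2 hours and transferred to PVDF. Membranes were blocked in TBS-T with 5% milk for 1 hour, probed overnight at 4° C with EGFR and tubulin antibodies, then secondary antibody for 1 hour, and detected by ECL on a Chemidoc.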

EGFR-Δ19 (HCC827) = EGFR-Δ19 (HCC827) (Homo sapiens (Human), UniProt P00533, DEL746-750); experiment: EGFR protein degradation assay (Western blot); assay type: cell-based; settings: 72 hours, 300 nM to 10 nM
HER2 InsYVMA = HER2 InsYVMA (Homo sapiens (Human), UniProt P04626, INS775YVMA); experiment: TR-FRET assay for ERBB kinases; assay type: biochemical; settings: geometric mean if measured more than once
Chain of HER2 InsYVMA (P04626 other isoform, or with tags, fused parts or gaps del 1-675/ins YVMA behind 775 limits assumed): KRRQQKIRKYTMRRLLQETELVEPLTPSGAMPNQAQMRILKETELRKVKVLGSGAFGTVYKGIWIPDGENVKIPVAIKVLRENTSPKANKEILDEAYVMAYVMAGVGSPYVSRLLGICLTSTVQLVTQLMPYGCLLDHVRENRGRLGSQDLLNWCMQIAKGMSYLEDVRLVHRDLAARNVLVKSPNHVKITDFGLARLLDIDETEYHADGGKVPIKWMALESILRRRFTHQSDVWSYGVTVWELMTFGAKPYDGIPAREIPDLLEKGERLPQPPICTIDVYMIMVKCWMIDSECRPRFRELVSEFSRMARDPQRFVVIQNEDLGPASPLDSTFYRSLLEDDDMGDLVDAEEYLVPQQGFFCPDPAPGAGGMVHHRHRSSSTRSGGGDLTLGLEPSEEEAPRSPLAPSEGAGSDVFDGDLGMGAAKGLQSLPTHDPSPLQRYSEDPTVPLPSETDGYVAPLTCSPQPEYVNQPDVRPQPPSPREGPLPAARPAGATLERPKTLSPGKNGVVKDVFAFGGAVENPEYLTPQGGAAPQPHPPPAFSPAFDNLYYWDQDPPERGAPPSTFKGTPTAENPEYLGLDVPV
Experimental: TR-FRET Assay for ERBB Kinases
All compounds and PROTACs were serially diluted in three-fold increments using 100% DMSO, followed by an intermediate 10-fold dilution using Buffer A (50 mM HEPES, pH 7.5, 50 mM NaCl, 10 mM MgCl2, 1 mM DTT, and 0.1% Pluronic F-68). Two microliters of serially diluted compound or PROTAC were then transferred to black 384-well Proxiplates (PerkinElmer, #6008260) using an Integra Viaflo96. Next, 10 uL of protein kinase in Buffer A was added to each well of the assay plate and pre-incubated with compound for 10 minutes. Kinase reactions were then initiated by addition of 5 uL substrate mix containing 3 mM ATP and 30 uM fluorescein-labeled Poly-GluTyr (Thermo Fisher, #PV3610) in Buffer A and allowed to proceed for 10 minutes at room temperature. Reactions were quenched by addition of a 5 uL mixture containing 5 nM LanthaScreen® Tb-pY20 Antibody (Thermo Fisher, #PV3552) and 40 mM EDTA in Buffer A. Assay plates were then read using a Synergy2 (Biotek Instruments, Winooski, Vt.) via excitation thru a 340/20 nm bandpass filter and emission collected thru 490/10 nm (donor) and 520/25 nm (acceptor) bandpass filters. The final kinase concentrations used for each 15 uL reaction were as follows: 0.2 nM EGFR Exon20NPG (SignalChem, #E10-132GG), 0.1 nM wild type EGFR (BPS Bioscience, #40187), 0.3 nM EGFR L858R/T790M/C797S (BPS Bioscience, #40351), 0.1 nM EGFR L858R (BPS Bioscience, #40189), 0.4 nM L858R/T790M (BPS Bioscience, #40350), InM EGFR Dell9 (SignalChem, #E10-122JG), 10 nM EGFR Dell9 T790M (SignalChem, #E10-122KG), 0.3 nM Her2 (BPS Bioscience, #40230), 15 nM Her2 InsYVMA (SignalChem, #E27-13BG).

EGFR Δ19/746/750 = EGFR Δ19/746/750 (Homo sapiens (Human), UniProt P00533, DEL746-750); experiment: TR-FRET assay for ERBB kinases; assay type: biochemical; settings: geometric mean if measured more than once
In short: (§1)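 Phosphorylation of fluorescein-labeled poly-GluTyr read as TR-FRET using Tb-pY20 antibody after EDTA stop, with 340 nm excitation. Kinase reaction ran 10 min at room temperature following 10 min compound pre-incubation; substrate mix held 3 mM ATP and 30 µM peptide before addition. Buffer was HEPES pH 7.5.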

EGFR L858R = EGFR L858R (Homo sapiens (Human), UniProt P00533, L858R); experiment: TR-FRET assay for ERBB kinases; assay type: biochemical; settings: geometric mean if measured more than once
In short: as §1

EGFR Δ19/746/750 T790M = EGFR Δ19/746/750 T790M (Homo sapiens (Human), UniProt P00533, DEL746-750/T790M); experiment: TR-FRET assay for ERBB kinases; assay type: biochemical; settings: geometric mean if measured more than once
In short: as §1

HER2WT = HER2WT (Homo sapiens (Human), UniProt P04626); experiment: TR-FRET assay for ERBB kinases; assay type: biochemical; settings: geometric mean if measured more than once
Chain of HER2WT (P04626 23-1255): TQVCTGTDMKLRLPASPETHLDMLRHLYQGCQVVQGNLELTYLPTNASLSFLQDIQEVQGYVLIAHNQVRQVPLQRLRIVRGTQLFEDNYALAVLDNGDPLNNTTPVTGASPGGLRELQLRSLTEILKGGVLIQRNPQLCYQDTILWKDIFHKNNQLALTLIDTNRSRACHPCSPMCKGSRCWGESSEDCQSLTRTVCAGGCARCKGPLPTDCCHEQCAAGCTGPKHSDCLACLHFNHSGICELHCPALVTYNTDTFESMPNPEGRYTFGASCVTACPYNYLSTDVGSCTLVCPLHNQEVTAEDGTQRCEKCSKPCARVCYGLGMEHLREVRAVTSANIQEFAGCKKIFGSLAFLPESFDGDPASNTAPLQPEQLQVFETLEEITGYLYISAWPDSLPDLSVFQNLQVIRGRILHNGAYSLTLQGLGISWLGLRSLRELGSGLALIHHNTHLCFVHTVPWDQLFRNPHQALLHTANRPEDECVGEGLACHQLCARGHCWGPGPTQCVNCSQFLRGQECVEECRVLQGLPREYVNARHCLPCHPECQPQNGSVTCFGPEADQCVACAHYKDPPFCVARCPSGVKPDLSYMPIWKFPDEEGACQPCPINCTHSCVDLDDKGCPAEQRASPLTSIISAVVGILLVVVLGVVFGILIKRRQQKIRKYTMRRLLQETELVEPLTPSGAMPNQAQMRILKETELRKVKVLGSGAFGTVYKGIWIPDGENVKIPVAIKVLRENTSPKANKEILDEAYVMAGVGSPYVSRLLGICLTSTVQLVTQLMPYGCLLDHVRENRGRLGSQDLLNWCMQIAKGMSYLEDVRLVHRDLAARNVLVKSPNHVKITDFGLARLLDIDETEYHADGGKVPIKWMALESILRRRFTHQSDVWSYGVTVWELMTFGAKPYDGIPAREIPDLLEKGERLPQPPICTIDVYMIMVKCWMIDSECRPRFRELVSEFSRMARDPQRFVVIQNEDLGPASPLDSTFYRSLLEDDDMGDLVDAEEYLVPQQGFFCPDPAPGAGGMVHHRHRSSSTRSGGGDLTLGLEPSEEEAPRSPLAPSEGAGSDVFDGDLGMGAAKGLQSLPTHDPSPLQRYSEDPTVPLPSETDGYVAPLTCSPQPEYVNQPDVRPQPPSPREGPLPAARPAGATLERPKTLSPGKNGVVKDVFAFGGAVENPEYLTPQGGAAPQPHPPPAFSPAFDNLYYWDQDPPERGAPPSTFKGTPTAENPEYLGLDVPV
In short: as §1

EGFR WT = EGFR WT (Homo sapiens (Human), UniProt P00533); experiment: TR-FRET assay for ERBB kinases; assay type: biochemical; settings: geometric mean if measured more than once
In short: (§2)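 Kinase + cmpd preinc 10 min; start with mix of 3 mM ATP / 30 uM fluorescein poly-GluTyr (mix concs); 10 min RT; stop with 5 nM Tb-pY20 Ab / 40 mM EDTA. Buffer 50 mM HEPES pH 7.5, 10 mM MgCl2.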

EGFR L858R/T790M/C797S = EGFR L858R/T790M/C797S (Homo sapiens (Human), UniProt P00533, C797S/L858R/T790M); experiment: TR-FRET assay for ERBB kinases; assay type: biochemical; settings: geometric mean if measured more than once
In short: as §2

EGFR L858R/T790M = EGFR L858R/T790M (Homo sapiens (Human), UniProt P00533, L858R/T790M); experiment: TR-FRET assay for ERBB kinases; assay type: biochemical; settings: geometric mean if measured more than once
In short: as §2

EGFR Exon 20 ASV (HeLa*) = EGFR Exon 20 ASV (HeLa*) (Homo sapiens (Human), UniProt P00533, DUP767-769); experiment: EGFR protein degradation assay (Western blot); assay type: cell-based; settings: 72 hours, 300 nM to 10 nM
EGFR Exon20NPG = EGFR Exon20NPG (Homo sapiens (Human), UniProt P00533, INS770NPG); experiment: TR-FRET assay for ERBB kinases; assay type: biochemical; settings: geometric mean if measured more than once
In short: as §1

Compound: (2S,4R)-1-((S,E)-2-(tert-butyl)-16-((4-((4-chloro-3-fluorophenyl)amino)-7-methoxyquinazolin-6-yl)amino)-12-methyl-4,16-dioxo-6,9-dioxa-3,12-diazahexadec-14-enoyl)-4-hydroxy-N-(4-(4-methylthiazol-5-yl)benzyl)pyrrolidine-2-carboxamide [Example 41]
- EGFR protein remaining, EGFR-wt [1]: A (≤50% EGFR protein remaining after 72 hours of incubation with the test compound at a concentration between 300 nM and 10 nM)
- EGFR protein remaining, EGFR L858R/T790M double mutant [2]: B (≤80% and >50% EGFR protein remaining after 72 hours of incubation with the test compound at a concentration between 300 nM and 10 nM)
- EGFR protein remaining, EGFR-Δ19 (EGFR-Δ19 (HCC827)): A (≤50% EGFR protein remaining after 72 hours of incubation with the test compound at a concentration between 300 nM and 10 nM)

Compound: COC1CCN(c2nccc(Nc3cc4c(cn3)nc(COCCOCCOCCOc3ccc5c(c3)C(=O)N(C3CCC(=O)NC3=O)C5=O)n4C(C)C)n2)CC1 (stereo not shown) [Example 70, 2-(2,6-dioxopiperidin-3-yl)-5-(2-(2-(2-((1-isopropyl-6-((2-(4-methoxypiperidin-1-yl)pyrimidin-4-yl)amino)-1H-imidazo[4,5-c]pyridin-2-yl)methoxy)ethoxy)ethoxy)ethoxy)isoindoline-1,3-dione]
- IC50 (HER2 InsYVMA): 19 µM
- EGFR protein remaining, EGFR L858R/T790M double mutant [2]: C (>80% EGFR protein remaining after 72 hours of incubation with the test compound at a concentration of 300 nM)
- IC50 (EGFR Δ19/746/750): > 30 µM
- IC50 (EGFR L858R): > 30 µM
- IC50 (EGFR Δ19/746/750 T790M): 11 µM
- IC50 (HER2WT): > 30 µM
- IC50 (EGFR WT): > 30 µM
- IC50 (EGFR L858R/T790M/C797S): 16 µM
- IC50 (EGFR L858R/T790M): 15 µM

Compound: Cc1ncsc1-c1ccc(CNC(=O)[C@@H]2C[C@@H](O)CN2C(=O)[C@@H](NC(=O)COCCOCCN2CCN(Cc3ccc(-c4cc5c(NCc6ccccc6Cl)ncnc5[nH]4)cc3)CC2)C(C)(C)C)cc1 [compound 4]
- EGFR protein remaining, EGFR-wt [1]: C (>80% EGFR protein remaining after 72 hours of incubation with the test compound at a concentration of 300 nM)
- EGFR protein remaining, EGFR L858R/T790M double mutant [2]: C (>80% EGFR protein remaining after 72 hours of incubation with the test compound at a concentration of 300 nM)
- EGFR protein remaining, EGFR Exon 20 ASV (EGFR Exon 20 ASV (HeLa*)): C (>80% EGFR protein remaining after 72 hours of incubation with the test compound at a concentration of 300 nM)
- IC50 (EGFR Δ19/746/750): 0.0042 µM
- IC50 (EGFR L858R): 0.0083 µM
- IC50 (EGFR Δ19/746/750 T790M): 24 µM
- IC50 (HER2WT): 1.8 µM
- IC50 (EGFR Exon20NPG): 0.29 µM
- IC50 (EGFR WT): 0.045 µM
- IC50 (EGFR L858R/T790M/C797S): 10 µM
- IC50 (EGFR L858R/T790M): 22 µM

Compound: Cc1ncsc1-c1ccc(CNC(=O)[C@@H]2C[C@@H](O)CN2C(=O)[C@@H](NC(=O)COCCN2CCN(Cc3ccc(-c4cc5c(NCc6ccccc6Cl)ncnc5[nH]4)cc3)CC2)C(C)(C)C)cc1 [compound 5]
- EGFR protein remaining, EGFR-wt [1]: C (>80% EGFR protein remaining after 72 hours of incubation with the test compound at a concentration of 300 nM)
- EGFR protein remaining, EGFR L858R/T790M double mutant [2]: C (>80% EGFR protein remaining after 72 hours of incubation with the test compound at a concentration of 300 nM)
- EGFR protein remaining, EGFR Exon 20 ASV (EGFR Exon 20 ASV (HeLa*)): C (>80% EGFR protein remaining after 72 hours of incubation with the test compound at a concentration of 300 nM)
- IC50 (EGFR Δ19/746/750): 0.0041 µM
- IC50 (EGFR L858R): 0.011 µM
- IC50 (EGFR Δ19/746/750 T790M): 7.3 µM
- IC50 (HER2WT): 1.5 µM
- IC50 (EGFR Exon20NPG): 0.53 µM
- IC50 (EGFR WT): 0.04 µM
- IC50 (EGFR L858R/T790M/C797S): 5.4 µM
- IC50 (EGFR L858R/T790M): 19 µM

Compound: COC1CCN(c2nccc(Nc3cc4c(cn3)nc(COCCN3CCN(c5ccc6c(c5)C(=O)N(C5CCC(=O)NC5=O)C6=O)CC3)n4C(C)C)n2)CC1 (stereo not shown) [Example 71, 2-(2,6-dioxopiperidin-3-yl)-5-(4-(2-((1-isopropyl-6-((2-(4-methoxypiperidin-1-yl)pyrimidin-4-yl)amino)-1H-imidazo[4,5-c]pyridin-2-yl)methoxy)ethyl)piperazin-1-yl)isoindoline-1,3-dione]
- IC50 (HER2 InsYVMA): 13 µM
- EGFR protein remaining, EGFR L858R/T790M double mutant [2]: C (>80% EGFR protein remaining after 72 hours of incubation with the test compound at a concentration of 300 nM)
- IC50 (EGFR Δ19/746/750): > 30 µM
- IC50 (EGFR L858R): 26 µM
- IC50 (EGFR Δ19/746/750 T790M): 3.1 µM
- IC50 (HER2WT): > 30 µM
- IC50 (EGFR Exon20NPG): > 30 µM
- IC50 (EGFR WT): 30 µM
- IC50 (EGFR L858R/T790M/C797S): 0.096 µM
- IC50 (EGFR L858R/T790M): 0.12 µM

Compound: COC1CCN(c2nccc(Nc3cc4c(cn3)nc(COCCOCCOCC(=O)N[C@H](C(=O)N3C[C@@H](O)C[C@@H]3C(=O)N[C@@H](C)c3ccc(-c5scnc5C)cc3)C(C)(C)C)n4C(C)C)n2)CC1 [compound 73]
- IC50 (HER2 InsYVMA): 3.4 µM
- EGFR protein remaining, EGFR L858R/T790M double mutant [2]: C (>80% EGFR protein remaining after 72 hours of incubation with the test compound at a concentration of 300 nM)
- IC50 (EGFR Δ19/746/750): 8.1 µM
- IC50 (EGFR L858R): 9.8 µM
- IC50 (EGFR Δ19/746/750 T790M): 6.8 µM
- IC50 (HER2WT): > 30 µM
- IC50 (EGFR WT): 20 µM
- IC50 (EGFR L858R/T790M/C797S): 14 µM
- IC50 (EGFR L858R/T790M): 11 µM

Compound: O=C1CCC(N2C(=O)c3cccc(NCCOCCOCCOCCN4CCN(Cc5ccc(-c6cc7c(NCc8ccccc8Cl)ncnc7[nH]6)cc5)CC4)c3C2=O)C(=O)N1 (stereo not shown) [compound 6]
- EGFR protein remaining, EGFR-wt [1]: C (>80% EGFR protein remaining after 72 hours of incubation with the test compound at a concentration of 300 nM)
- EGFR protein remaining, EGFR L858R/T790M double mutant [2]: C (>80% EGFR protein remaining after 72 hours of incubation with the test compound at a concentration of 300 nM)
- EGFR protein remaining, EGFR Exon 20 ASV (EGFR Exon 20 ASV (HeLa*)): C (>80% EGFR protein remaining after 72 hours of incubation with the test compound at a concentration of 300 nM)
- IC50 (EGFR Δ19/746/750): 0.0029 µM
- IC50 (EGFR L858R): 0.047 µM
- IC50 (EGFR Δ19/746/750 T790M): 2.2 µM
- IC50 (HER2WT): 0.52 µM
- IC50 (EGFR Exon20NPG): 0.23 µM
- IC50 (EGFR WT): 0.064 µM
- IC50 (EGFR L858R/T790M/C797S): 3 µM
- IC50 (EGFR L858R/T790M): 8.9 µM
